The results in this text go back to patent publication US9309231B2, “Bridged ring compounds as hepatitis C virus (HCV) inhibitors and pharmaceutical applications thereof” (SUNSHINE LAKE PHARMA CO., LTD, priority 2012, dated 2016).

The structures appear in SMILES notation.

One test has as its system HCV GT1a replicon cells. Nature of the test: HCV replicon assay, GT1a replicon cells. The format is cell-based. To be noted: Hepatitis C virus, 72 hours incubation, luciferase reporter or NEO gene qPCR readout, read-out: EC50 against HCV 1a genotype. The procedure: (§1) An HCV Replicon assay was utilized in the present disclosure, and was prepared, developed and validated as described in Science, 1999, 285 (5424), 110-3 and J. Virol., 2003, 77 (5), 3007-19.
(§2) HCV GT1a, GT1b and GT2a replicon cells were used to test the currently described compound series as well as wild-type cells HCV 1b and resistant cells Y^93H, L31F, P32L and I302V. GT1a and CT1b are HCV Replicon System which is transfected HCV 1a, 1b genotype respectively.
(§3) 1. Testing EC50 of the Compounds by Luciferase Assay
(§4) The GT1b cells and GT1a cells were seeded into 96-well plates (8,000 cells in 125 μl/well) respectively; each compound was diluted to desired concentration using 5-fold serial dilutions protocol, 10 dose in duplicate, and added to wells with POD™ 810 Plate Assembler. The final concentration of DMSO was 0.5%; the plates were incubated in a CO2 incubator for 72 hours; after that, 40 μl of Luciferase assay substrate (Promega Bright-Glo) was added to each well, and detected by a chemiluminescence detection system (Topcount Microplate Scintillation and Luminescence Counter) 5 minutes later; data analysis.
(§5) 2. Testing EC50 of the Compounds by Detecting Antibiotic G418 Resistance Gene NEO Gene
(§6) The GT1b cells and GT1a cells were seeded into 96-well plates (8,000 cells in 125 μl/well) respectively; each compound was diluted to desired concentration using 5-fold serial dilutions protocol, 10 dose in duplicate, and added to wells with POD™ 810 Plate Assembler., the final concentration of DMSO was 0.5%; the cells were incubated in a CO2 incubator for 72 hours; quantitative PCR. • Sample preparation: the supernatant was removed, 100 μl of FCW buffer solution was added to each well, washed carefully and discarded the solution; 50 μl of lysate FCP was added to each well, the cells was lysed as PCR template and diluted with DEPC water. • Quantitative PCR: preparation of reaction mixture according to PCR system; the reaction mixture was dispensed into a 384-well PCR reaction plate (specially for quantitative); and a standard template which was diluted in proportion was distributed into the plate; and the sample template was distributed into the plate; then the 384-well plate was sealed with closure plate membrane; the […] PCR machine was operated by procedures; data analysis.
(§7) 3. Data Processing: The EC50 Values of Compounds were Analyzed by GraphPad Prism Software.
On the technique in general: Replicon systems follow genome replication, usually without infectious particles.

The subject of another test is HCV GT1b replicon cells. Nature of the test: HCV replicon assay, GT1b replicon cells. To be noted: Hepatitis C virus, 72 hours incubation, luciferase reporter or NEO gene qPCR readout, read-out: EC50 against HCV 1b genotype. The format is cell-based. The procedure: as §1, §2, §3, §4, §5, §6, §7

The term EC50 denotes the concentration giving half of the maximal effect. Turning to `COC(=O)N[C@H](C(=O)N1CCC[C@H]1C(=O)Nc1ccc(-c2ccc(-c3ccc(NC(=O)[C@@H]4CCCN4C(=O)[C@@H](NC(=O)OC)C(C)C)cc3)c3c2C2CCC3C2)cc1)C(C)C` [Example 43], the EC50 came to 1.13 nM in the test on HCV GT1a replicon cells and 0.073 nM with HCV GT1b replicon cells.

`COC(=O)N[C@H](C(=O)N1CC(F)(F)C[C@H]1c1ncc(-c2ccc(-c3ccc(-c4cnc([C@@H]5CC(F)(F)CN5C(=O)[C@@H](NC(=O)OC)C(C)C)[nH]4)c4c3C3CCC4C3)cc2)[nH]1)C(C)C` (stereo partly drawn) [Example 14]: the EC50 in the test with HCV GT1a replicon cells was determined as 0.487 nM; in the test with HCV GT1b replicon cells, 0.006 nM.

Turning to `COC(=O)N[C@H](C(=O)N1CCC[C@H]1c1nc2ccc(-c3ccc(-c4ccc(-c5cnc([C@@H]6CC7CC7N6C(=O)[C@@H](NC(=O)OC)C(C)C)[nH]5)cc4)c4c3C3CCC4C3)cc2[nH]1)C(C)C` (stereo partly drawn) [Example 3], the EC50 in the test with HCV GT1a replicon cells is 0.053 nM; in the test with HCV GT1b replicon cells it was 0.013 nM.

Take `[2H]C([2H])([2H])C([2H])(C([2H])([2H])[2H])[C@]([2H])(NC(=O)OC)C(=O)N1CCC[C@H]1c1ncc(-c2ccc(-c3ccc(-c4cnc([C@@H]5CCCN5C(=O)[C@@]([2H])(NC(=O)OC)C([2H])(C([2H])([2H])[2H])C([2H])([2H])[2H])[nH]4)c4c3C3CCC4C3)c(F)c2)[nH]1` (stereo partly drawn) [Example 77]: the EC50 in the test on HCV GT1a replicon cells worked out at 0.206 nM; in the test with HCV GT1b replicon cells, 0.009 nM.

On to `COC(=O)N[C@H](C(=O)N1CCC[C@H]1c1ncc(-c2ccc(-c3ccc(-c4ccc(-c5cnc([C@@H]6CCCN6C(=O)[C@@H](NC(=O)OC)C(C)C)[nH]5)cc4)c4c3C3CCC4O3)cc2)[nH]1)C(C)C` [Example 63], for which the concentration for a half-maximal effect (EC50) with HCV GT1a replicon cells came to 2.25 nM; in the test on HCV GT1b replicon cells, 0.815 nM.

With `COC(=O)N[C@H](C(=O)N1CCC[C@H]1c1ncc(-c2ccc(-c3ccc(-c4ccc(-c5cnc([C@@H]6CCCN6C(=O)[C@@H](NC(=O)OC)C(C)C)[nH]5)cc4)c4c3C3CCC4C3)cc2)[nH]1)C(C)C` [Example 5], the figures for the EC50 with HCV GT1a replicon cells and in the test with HCV GT1b replicon cells were 1.05 nM and 0.098 nM, respectively.

For the compound `COC(=O)N[C@H](C(=O)N1CCC[C@H]1C(=O)Nc1cccc(-c2ccc(-c3ccc(-c4cnc([C@@H]5CCCN5C(=O)[C@@H](NC(=O)OC)C(C)C)[nH]4)cc3)c3c2C2CCC3C2)c1)C(C)C` (stereo partly drawn) [Example 16], the figures for the EC50 with HCV GT1a replicon cells and with HCV GT1b replicon cells were 3.5 nM and 0.009 nM, respectively.

As for `COC(=O)N[C@H](C(=O)N1CCC[C@H]1c1ncc(-c2ccc(-c3ccc(-c4ccc5nc([C@@H]6CCCN6C(=O)[C@@H](NC(=O)OC)C(C)C)[nH]c5c4)c4c3C3CCC4C3)cc2)[nH]1)C(C)C` (stereo partly drawn) [Example 17], the figures for the EC50 in the test with HCV GT1a replicon cells and with HCV GT1b replicon cells were 0.767 nM and 0.007 nM, respectively.

As for `COC(=O)N[C@H](C(=O)N1CCC[C@H]1c1ncc(-c2ccc(-c3ccc(-c4cnc([C@@H]5CCCN5C(=O)[C@@H](NC(=O)OC)C(C)C)[nH]4)c4c3C3CCC4C3)c(F)c2)[nH]1)C(C)C` (stereo partly drawn) [Example 4], the EC50 with HCV GT1a replicon cells came to 0.497 nM; in the test with HCV GT1b replicon cells it was 0.007 nM.

As for `[2H]C([2H])([2H])[C@]([2H])(NC(=O)OC)C(=O)N1C[C@@H](F)C[C@H]1c1ncc(-c2ccc(-c3ccc(-c4cnc([C@@H]5C[C@H](F)CN5C(=O)[C@@]([2H])(NC(=O)OC)C([2H])([2H])[2H])[nH]4)c4c3C3CCC4C3)cc2)[nH]1` (stereo partly drawn) [Example 79], the EC50 in the test with HCV GT1a replicon cells was 0.314 nM; in the test on HCV GT1b replicon cells, 0.043 nM.

On to `COC(=O)N[C@H](C(=O)N1CCC[C@H]1c1nc2ccc(-c3ccc(-c4ccc(-c5cnc([C@@H]6C7CCC(C7)N6C(=O)[C@@H](NC(=O)OC)C(C)C)[nH]5)cc4)c4c3C3CCC4C3)cc2[nH]1)C(C)C` (stereo partly drawn) [Example 1], for which the concentration for a half-maximal effect (EC50) with HCV GT1a replicon cells is 0.029 nM; with HCV GT1b replicon cells it was 0.008 nM.

`COC(=O)N[C@H](C(=O)N1CCC[C@H]1c1ncc(-c2ccc(-c3ccc(-c4ccc5nc([C@@H]6CCCN6C(=O)[C@@H](NC(=O)OC)C(C)C)[nH]c5c4)c4c3C3CCC4C3)nc2)[nH]1)C(C)C` (stereo partly drawn) [Example 41]: the EC50 turned out to be 0.067 nM in the test on HCV GT1a replicon cells and 0.01 nM in the test with HCV GT1b replicon cells.

Consider `COC(=O)N[C@H](C(=O)N1CC(F)(F)CC1c1ncc(-c2ccc(-c3ccc(-c4cnc([C@@H]5CC(F)(F)CN5C(=O)[C@@H](NC(=O)OC)C(C)C)[nH]4)cc3)c3c2C2CCC3N2C)[nH]1)C(C)C` (stereo partly drawn) [Example 31], for which the EC50 came to 0.077 nM with HCV GT1a replicon cells and 0.038 nM with HCV GT1b replicon cells.

With `CCC(C)[C@H](NC(=O)OC)C(=O)N1CCC[C@H]1c1nc2cc(-c3ccc(-c4ccc(-c5cnc([C@@H]6CCCN6C(=O)[C@@H](NC(=O)OC)C(C)C)[nH]5)cc4)c4c3C3CCC4C3)ccc2[nH]1` (stereo partly drawn) [Example 9], the values for the EC50 in the test with HCV GT1a replicon cells and in the test with HCV GT1b replicon cells were 0.104 nM and 0.009 nM, respectively.

`COC(=O)N[C@H](C(=O)N1CCC[C@H]1c1ncc(-c2ccc3cc(-c4ccc(-c5cnc([C@@H]6CCCN6C(=O)[C@@H](NC(=O)OC)C(C)C)[nH]5)c5c4C4CCC5C4)ccc3c2)[nH]1)C(C)C` (stereo partly drawn) [Example 48]: the concentration giving a half-maximal response (EC50) with HCV GT1a replicon cells is 0.043 nM; with HCV GT1b replicon cells, 0.029 nM.

As for `CC[C@H](C)[C@H](NC(=O)OC)C(=O)N1CCC[C@H]1c1nc2ccc(-c3ccc(-c4ccc(-c5cnc([C@@H]6CCCN6C(=O)[C@@H](NC(=O)OC)C(C)C)[nH]5)cc4)c4c3C3CCC4N3C)cc2[nH]1` (stereo partly drawn) [Example 28], the EC50 in the test on HCV GT1a replicon cells was found to be 0.063 nM; in the test with HCV GT1b replicon cells, 0.015 nM.

On to `COC(=O)N[C@H](C(=O)N1CCC[C@H]1c1ncc(-c2ccc(-c3ccc(-c4ccc5nc([C@@H]6CCCN6C(=O)[C@@H](NC(=O)OC)C(C)C)[nH]c5c4)cc3)c3c2C2CCC3C2)[nH]1)C(C)C` (stereo partly drawn) [Example 47], for which the EC50 in the test with HCV GT1a replicon cells was 0.053 nM; in the test with HCV GT1b replicon cells it was 0.013 nM.

As to `COC(=O)N[C@H](C(=O)N1CCS[C@H]1c1ncc(-c2ccc(-c3ccc(-c4cnc([C@@H]5SCCN5C(=O)[C@@H](NC(=O)OC)C(C)C)[nH]4)c4c3C3CCC4C3)cc2)[nH]1)C(C)C` (stereo partly drawn) [Example 46], the EC50 is 0.439 nM in the test on HCV GT1a replicon cells and 0.035 nM with HCV GT1b replicon cells.

`COC(=O)N[C@H](C(=O)N1CCC[C@H]1c1ncc(-c2ccc(-c3ccc(-c4cnc([C@@H]5CCCN5C(=O)[C@@H](NC(=O)OC)C(C)C)[nH]4)c4c3C3CCC4N3C)cc2)[nH]1)C(C)C` (stereo partly drawn) [Example 26]: the EC50 was 0.653 nM with HCV GT1a replicon cells and 0.077 nM in the test on HCV GT1b replicon cells.

Regarding `COC(=O)N[C@H](C(=O)N1CCC[C@H]1c1ncc(-c2ccc(-c3ccc(-c4cnc([C@@H]5CCCN5C(=O)[C@@H](NC(=O)OC)C(C)C)[nH]4)c4c3C3CCC4C3)c3c2CCC3)[nH]1)C(C)C` (stereo partly drawn) [Example 67], the EC50 in the test on HCV GT1a replicon cells is 0.953 nM; with HCV GT1b replicon cells, 0.053 nM.

With `COC(=O)N[C@H](C(=O)N1CCC[C@H]1c1ncc(-c2ccc(-c3ccc(-c4cnc([C@@H]5CCCN5C(=O)[C@@H](NC(=O)OC)C(C)C)[nH]4)c4c3C3CCC4CC3)cc2)[nH]1)C(C)C` [Example 22], the results for the EC50 in the test with HCV GT1a replicon cells and with HCV GT1b replicon cells were 11.4 nM and 0.004 nM, respectively.

Consider `COC(=O)N[C@H](C(=O)N1CCC[C@H]1c1nc2cc(-c3ccc(-c4ccc(-c5cnc([C@H]6CCCN6C(=O)[C@@H](NC(=O)OC)C(C)C)[nH]5)cc4)c4c3C3CCC4C3)ccc2[nH]1)c1ccccc1` (stereo partly drawn) [Example 8], for which the EC50 in the test with HCV GT1a replicon cells came to 0.033 nM; in the test with HCV GT1b replicon cells, 0.019 nM.

Consider `COC(=O)N[C@H](C(=O)N1CCC[C@H]1c1ncc(-c2ccc(-c3ccc(-c4cnc([C@@H]5CCCN5C(=O)[C@@H](NC(=O)OC)C(C)C)[nH]4)c4c3C3CCC4C3)s2)[nH]1)C(C)C` (stereo partly drawn) [Example 40], for which the EC50 with HCV GT1a replicon cells is 0.083 nM; in the test with HCV GT1b replicon cells, 0.012 nM.

`COC(=O)N[C@H](C(=O)N1CCCC1c1ncc(-c2ccc(-c3ccc(-c4cnc([C@@H]5CC6(CN5C(=O)[C@@H](NC(=O)OC)C(C)C)OCCO6)[nH]4)cc3)c3c2C2CCC3CC2)[nH]1)C(C)C` (stereo partly drawn) [Example 61]: the figures for the EC50 in the test with HCV GT1a replicon cells and in the test with HCV GT1b replicon cells were 0.088 nM and 0.011 nM, respectively.
